Reference: patent US7741355B2, “Small-molecule modulators of TRP-p8 activity” (Dendreon Corporation, priority 2006, dated 2010)
pEC50: −log10 of the molar value. Where two headings read alike, the source gives them in different places.

Target: T1, Trp-p8 (Homo sapiens, UniProt Q7Z2W7, T58I)
T1 construct: expressed in transfected cells; host or cells: CHO (Chinese Hamster Ovary) cells
Assay: ATP viability assay with CHO/Trp-p8 cells at 37° C.
Assay type: cell-based
Conditions: CHO/Trp-p8 cells, 24-26 hours at 37° C., 50% reduction in relative cell viability, read-out: EC50
Text: Human Trp-p8 transfected CHO cells (referred to herein as CHO/Trp-p8) were generated for use in experiments of the present invention. Expression of Trp-p8 polypeptide in this transfectant and the absence of any endogenous expression in the non-transfected CHO was confirmed by western blot and immunofluorescence using a Trp-p8 specific antibody (GS2.20) as well as the calcium flux assay with Icilin (1-[2-hydroxyphenyl]-4-[3-nitrophenyl]-1,2,3,6-tetrahydropyrimidine-2-one) and menthol (2-isopropyl-5-methyl-cyclohexanol). Non-transfected CHO cells were used to establish the specificity of the effects of the compounds observed with CHO/Trp-p8.
This Example discloses an ATP viability assay suitable for screening for effective Trp-p8 agonists. The ATP viability assay described herein employs CHO cells expressing an exogenous Trp-p8 cDNA. This example further establishes that Trp-p8 agonists of the present invention are effective in decreasing the viability of Trp-p8 expressing cells.
The concentration of intracellular ATP declines very rapidly when metabolically active cells undergo necrosis and/or apoptosis. The ATP concentration and consequently the relative cell viability can be measured by established methods using commercially available reagents. In the agonist screening methodology disclosed herein, a compound that specifically decreases the viability of CHO/Trp-p8 cells is referred to as an agonist.
As a primary screen for efficacy and specificity for agonists, both the non-transfected CHO and CHO/Trp-p8 cells were exposed to 1 or 10 μM of test compounds in 1% dimethylsulfoxide (DMSO) or 1% DMSO (control) in a 96-well black walled, black-bottomed, cell-culture treated plate. DMSO was the solvent for all of the compounds tested. After 24-26 hours at 37° C., the cells were lysed and ATP concentration determined via a chemiluminescence assay using a commercially available reagent kit—Cell Titer-Glo (Promega; Madison, Wis.). […] (EC50 is defined herein as the agonist concentration at which there is a 50% reduction in relative cell viability).

T1 sequence (Q7Z2W7 whole entry T58I): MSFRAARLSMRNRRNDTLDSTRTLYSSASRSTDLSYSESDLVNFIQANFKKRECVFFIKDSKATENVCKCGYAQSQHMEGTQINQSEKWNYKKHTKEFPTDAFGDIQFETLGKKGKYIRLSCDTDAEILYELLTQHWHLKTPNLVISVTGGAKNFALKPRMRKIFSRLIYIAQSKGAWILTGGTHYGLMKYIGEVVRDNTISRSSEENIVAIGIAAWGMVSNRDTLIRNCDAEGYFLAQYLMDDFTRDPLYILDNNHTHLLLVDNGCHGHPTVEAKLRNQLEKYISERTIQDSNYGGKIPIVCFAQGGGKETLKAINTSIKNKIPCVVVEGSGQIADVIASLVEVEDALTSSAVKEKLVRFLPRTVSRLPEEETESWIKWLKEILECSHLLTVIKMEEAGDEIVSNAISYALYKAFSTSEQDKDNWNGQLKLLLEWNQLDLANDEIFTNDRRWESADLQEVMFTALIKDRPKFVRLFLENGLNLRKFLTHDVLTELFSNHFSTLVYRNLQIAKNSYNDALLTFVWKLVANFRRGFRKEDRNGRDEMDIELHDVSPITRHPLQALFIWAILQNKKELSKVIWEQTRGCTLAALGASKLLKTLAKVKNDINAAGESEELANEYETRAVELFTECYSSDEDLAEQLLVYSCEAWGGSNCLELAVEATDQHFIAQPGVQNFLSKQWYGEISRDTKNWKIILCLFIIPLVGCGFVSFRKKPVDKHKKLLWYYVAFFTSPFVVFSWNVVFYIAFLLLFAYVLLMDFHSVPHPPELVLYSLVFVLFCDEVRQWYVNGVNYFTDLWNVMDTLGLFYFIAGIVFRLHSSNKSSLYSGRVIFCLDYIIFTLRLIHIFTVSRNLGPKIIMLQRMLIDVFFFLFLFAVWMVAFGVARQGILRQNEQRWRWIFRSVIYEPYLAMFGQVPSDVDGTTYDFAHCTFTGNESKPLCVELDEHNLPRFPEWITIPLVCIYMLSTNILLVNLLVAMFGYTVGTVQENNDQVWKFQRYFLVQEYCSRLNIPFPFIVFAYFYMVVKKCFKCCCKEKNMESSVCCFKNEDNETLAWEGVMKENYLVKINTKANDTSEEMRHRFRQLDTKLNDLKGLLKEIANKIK

Row | SMILES | pEC50 (Table 5, Formula I-E) | other results
1 | CC(C)[C@@H]1CC[C@@H](C)C[C@H]1C(=O)NC[C@@H](OCCN)c1ccccc1 [Compound 29] | – | pEC50 (Table 3, Formula I-C): > 7.70
2 | CSc1ccc2c(c1)n(CCN)c(=O)n2C(=O)[C@@H]1C[C@H](C)CC[C@H]1C(C)C [Compound 42, 3-(2-Amino-ethyl)-1-(2-isopropyl-5-methyl-cyclohexanecarbonyl)-5-methylsulfanyl-1,3-dihydro-benzoimidazol-2-one] | > 7.70 | –
3 | COc1ccc2c(c1)n(CCN)c(=O)n2C(=O)[C@@H]1C[C@H](C)CC[C@H]1C(C)C [Compound 36, 3-(2-Aminoethyl)-1-(2-isopropyl-5-methylcyclohexanecarbonyl)-5-methoxy-1,3-dihydro-benzoimidazol-2-one] | > 7.70 | –
4 | CC(C)[C@@H]1CC[C@@H](C)C[C@H]1C(=O)NCC(NCCN)c1ccccc1 (some centres unmarked) [Compound 32] | – | pEC50 (Table 3, Formula I-C): 7.00 to 7.29
5 | CC(C)[C@@H]1CC[C@@H](C)C[C@H]1C(=O)n1c(=O)n(CCN)c2cc(C(N)=O)ccc21 [Compound 41, 3-(2-Amino-ethyl)-1-(2-isopropyl-5-methyl-cyclohexanecarbonyl)-2-oxo-2,3-dihydro-1H-benzoimidazole-5-carboxylic acid amide] | > 7.70 | –
6 | CC(C)[C@@H]1CC[C@@H](C)C[C@H]1C(=O)Nc1cc(-c2ccccc2)nn1C[C@@H](C)N [Compound 15] | – | pEC50 (Table 2, Formula I-B): > 7.70
7 | COc1ccc(NC(=O)[C@@H]2C[C@H](C)CC[C@H]2C(C)C)c(NC(=O)CN)c1 [Compound 13] | – | pEC50 (Table 1, Formula I-A): 7.00 to 7.29
8 | CC(C)[C@@H]1CC[C@@H](C)C[C@H]1C(=O)Nc1cc(-c2ccccc2)nn1C[C@H](C)N [Compound 22] | – | pEC50 (Table 2, Formula I-B): 7.30 to 7.68
9 | CC(C)[C@@H]1CC[C@@H](C)C[C@H]1C(=O)n1c(=O)n(CCN)c2cc(C(=O)NCCO)ccc21 [Compound 52] | > 7.70 | –
10 | CC(C)[C@@H]1CC[C@@H](C)C[C@H]1C(=O)n1c(=O)n(CCCCN)c2ccccc21 [Compound 76] | 7.00 to 7.29 | –
11 | CSc1ccc(NC(=O)[C@@H]2C[C@H](C)CC[C@H]2C(C)C)c(C(=O)NCCN)c1 [Compound 2] | – | pEC50 (Table 1, Formula I-A): > 7.70
12 | COc1ccc(NC(=O)[C@@H]2C[C@H](C)CC[C@H]2C(C)C)c(NC(=O)[C@@H](C)N)c1 [Compound 1, 2-Isopropyl-5-methyl-cyclohexanecarboxylic acid-[2-(2-aminopropionylamino)-4-methoxylphenyl]amide] | – | pEC50 (Table 1, Formula I-A): > 7.70
13 | CC(C)[C@@H]1CC[C@@H](C)C[C@H]1C(=O)NCC(OCCCN)c1ccccc1 (some centres unmarked) [Compound 31, 2-Isopropyl-5-methyl-cyclohexanecarboxylic[2-(3-amino-4-propoxy)-2-phenyl-ethyl]-amide] | – | pEC50 (Table 3, Formula I-C): 7.30 to 7.68
14 | CC(C)[C@@H]1CC[C@@H](C)C[C@H]1C(=O)n1c(=O)n(CCN)c2cc(OCCCO)ccc21 [Compound 37, 3-(2-aminoethyl)-5-(3-hydroxypropoxy)-1-(2-isopropyl-5-methylcyclohexanecarbonyl)-1,3-dihydro-benzoimidazol-2-one] | > 7.70 | –
15 | COc1ccc(NC(=O)[C@@H]2C[C@H](C)CC[C@H]2C(C)C)c(NC(=O)[C@H](N)[C@H](C)O)c1 [Compound 12] | – | pEC50 (Table 1, Formula I-A): 7.00 to 7.29
16 | CC(C)[C@@H]1CC[C@@H](C)C[C@H]1C(=O)n1c(=O)n(CCN)c2cc(OCCO)ccc21 [Compound 40, 3-(2-aminoethyl)-5-(2-hydroxyethoxy)-1-(2-isopropyl-5-methylcyclohexanecarbonyl)-1,3-dihydro-benzoimidazol-2-one] | > 7.70 | –
17 | CC(C)[C@@H]1CC[C@@H](C)C[C@H]1C(=O)n1c(=O)n(CCN)c2ncccc21 [Compound 57] | 7.30 to 7.68 | –
18 | CC(C)[C@@H]1CC[C@@H](C)C[C@H]1C(=O)n1c(=O)n(CCCN)c2ccccc21 [Compound 58] | 7.30 to 7.68 | –
19 | CCN(CC)C(=O)c1ccc2c(c1)n(CCN)c(=O)n2C(=O)[C@@H]1C[C@H](C)CC[C@H]1C(C)C [Compound 70] | 7.00 to 7.29 | –
20 | CC(C)[C@@H]1CC[C@@H](C)C[C@H]1C(=O)NCCN(C(=O)CN)c1ccccc1 [Compound 35] | – | pEC50 (Table 4, Formula I-D): 7.30 to 7.68
